Results published in patent US9890192B2, “Targeted nitroxide agents” (University of Pittsburgh—of the Commonwealth System of …, priority 2008, dated 2018).

Test system: rat ileal mucosal permeability
Assay: Intestinal mucosal permeability assay (FD4) after hemorrhagic shock
Assay type: in vivo
Experimental: Intestinal mucosal permeability assay. Animals were allowed access to water but not food for 24 h prior to the experiment in order to decrease the volume of intestinal contents. The rats were instrumented as described above. A midline laparotomy was performed and the small intestine was exteriorized from the duodenojejunal junction to the ileocecal valve. A small incision was made on the antimesenteric aspect of the proximal small intestine and saline solution (1.5 ml) was injected. The bowel was ligated proximally and distally to the incision with 4-0 silk (Look, Reading, Pa.).
The small intestine was compressed gently in aboral direction along its length to displace intestinal contents into the colon. Starting 5 cm from the ileocecal valve, the ileum was partitioned into six contiguous water-tight segments. Each segment was 3 cm long and was bounded proximally and distally by constricting circumferential 4-0 silk sutures. Care was taken to ensure that the vascular supply to intestine was not compromised, and each segment was well-perfused.
Two randomly selected segments in each rat were injected with 0.3 ml of vehicle and served as “no treatment” controls. In order to fill the segments, a small incision was made and the solution was injected using a Teflon catheter (Abbocath 16Ga, Abbot Laboratories).
The remaining four other segments were injected with solutions containing either 4-hydroxy-2,2,6,6-tetramethylpiperidine-N-oxyl (TEMPOL) or one of the Gramicidin S-based compounds. Four different final concentrations of TEMPOL in normal saline were evaluated: 0.1, 1, 5 and 20 mM. The hemigranmicidin-based compounds were dissolved in a mixture of dimethylsulfoxide (DMSO) and normal saline (1:99 v/v) and injected at final concentrations of 0.1, 1, 10 or 100 μM. […]
Fluorescence of FD4 in the solution inside the beaker and within each gut sac was measured using a fluorescence spectrophotometer (LS-50, Perkin-Elmer, Palo Alto, Calif.) at an excitation wavelength of 492 nm and an emission wavelength of 515 nm. […]

## CC(C)C[C@@H](/C=C/[C@H](Cc1ccccc1)C(=O)N1CCC[C@H]1C(=O)N[C@H](C(=O)N[C@@H](CCCNC(=O)OCc1ccccc1)C(=O)NC1CC(C)(C)N([O])C(C)(C)C1)C(C)C)NC(=O)OC(C)(C)C [XJB-5-131]
From lowest effective concentrations
  potency relative to TEMPOL: ~1000 fold
intraluminal
  hemorrhagic shock-induced mucosal hyperpermeability, of the control value: approximately 60%
  lowest effective concentration: 1 µM
